Experimental data published in patent US11396493B2, “Amorphous pyrrolidine derivative as PPAR agonist and preparation method thereof” (GUANGDONG RAYNOVENT BIOTECH CO., LTD., priority 2017, dated 2022).
One block for each compound: values may come before it.

Key:
PPAR Alpha = target: T1, PPAR Alpha (Homo sapiens, UniProt Q07869); assay: PathHunter NHR protein interaction test, agonist mode, PPAR Alpha; type: cell-based
T1 sequence (Q07869 1-468): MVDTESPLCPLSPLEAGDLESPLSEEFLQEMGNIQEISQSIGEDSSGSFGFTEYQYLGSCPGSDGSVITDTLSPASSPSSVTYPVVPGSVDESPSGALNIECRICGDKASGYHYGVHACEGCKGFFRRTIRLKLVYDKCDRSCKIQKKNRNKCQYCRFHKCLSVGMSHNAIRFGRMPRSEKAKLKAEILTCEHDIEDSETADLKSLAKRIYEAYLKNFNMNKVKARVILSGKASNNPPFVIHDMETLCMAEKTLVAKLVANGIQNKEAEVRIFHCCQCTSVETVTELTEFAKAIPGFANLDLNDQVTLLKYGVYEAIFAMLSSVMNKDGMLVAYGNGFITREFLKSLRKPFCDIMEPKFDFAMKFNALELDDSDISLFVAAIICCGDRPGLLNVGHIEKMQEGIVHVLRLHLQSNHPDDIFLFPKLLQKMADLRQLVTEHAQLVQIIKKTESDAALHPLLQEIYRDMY
Text: (§1) Principles of in Vitro Test of PPAR Agonist Activity
(§2) Nuclear Hormone Receptor (NHR) Test
(§3) PathHunter's NHR protein interaction and nuclear transfer test are used to detect the activation ability of nuclear hormone receptor in a uniform, non-imaging experiment. This technology is called as enzyme fragment complementation […], and is developed by DiscoverX.
(§4) NHR protein test is based on the detection of the protein-protein interaction between a standard length of NHR protein in an activated state and a nuclear fusion protein containing a steroid receptor co-activating peptide (SRCP) region and one or more standard LXXLL acting sequences.
(§5) NHR is labeled on the ProLink™ component of an EFC test system, and the SRCP region and the enzyme receptor component (EA) are fused and expressed in the nucleus. When bound to the ligand, the NHR will transfer to the nucleus and obtain the SRCP region in which a complementary effect is produced, thereby generating an equivalent amount of activated-galactosidase (-Gal), accompanied by the generation of chemical light signals. The benefits associated with this pathway include reduced incubation time of the compound, direct test of an NHR target, use of human NHR sequences with a standard length, and selection of some new classes of compounds based on the disruption of protein-protein interactions.
(§6) The NHR NT test detected the transfer of an NHR between the cytoplasmic and nuclear compartments. The receptor was labeled on the ProLink™ component of the EFC test system, while the EA and nuclear sequence were fused, thereby limiting the expression of EA on the nucleus. Nucleus transfer leaded to the complementary effect with EA, thereby generating one equivalent of activated galactosidase (-Gal), accompanied by the generation of chemical light signals.
(§7) 1. PathHunter NHR cell strains were spread from a frozen stock in accordance with standard operations.
(§8) 2. Cells were seeded onto a 384-well white cell plate of 20 uL/well, and incubated at 37° C. for an appropriate time prior to test. The culture medium contained activated carbon dextran with filtered serum to reduce the level of hormone expression.
(§9) Experiments of Agonist Mode:
(§10) 1. As for the measurement of an agonist activity, it is required to incubate the cells with the compound to induce a response.
2. […]
(§11) 2. The chemiluminescence signals generated by the microplate were to be detected by a PerkinElmer Envision instrument.
(§12) 1. The activity of the compound was analyzed by CIBS data analysis software (ChemInnovation, CA).
(§13) 2. For experiments of agonist mode, the percentage activity is calculated by the following formula: % activity=100%×(the mean RLU of the compound to be tested−the mean background RLU of the medium)/(the mean of maximum control of the ligand−the mean background RLU of the medium)

PPAR Delta = target: T2, PPAR Delta (Homo sapiens, UniProt Q03181); assay: PathHunter NHR protein interaction test, agonist mode, PPAR Delta; type: cell-based
T2 sequence (Q03181 1-441): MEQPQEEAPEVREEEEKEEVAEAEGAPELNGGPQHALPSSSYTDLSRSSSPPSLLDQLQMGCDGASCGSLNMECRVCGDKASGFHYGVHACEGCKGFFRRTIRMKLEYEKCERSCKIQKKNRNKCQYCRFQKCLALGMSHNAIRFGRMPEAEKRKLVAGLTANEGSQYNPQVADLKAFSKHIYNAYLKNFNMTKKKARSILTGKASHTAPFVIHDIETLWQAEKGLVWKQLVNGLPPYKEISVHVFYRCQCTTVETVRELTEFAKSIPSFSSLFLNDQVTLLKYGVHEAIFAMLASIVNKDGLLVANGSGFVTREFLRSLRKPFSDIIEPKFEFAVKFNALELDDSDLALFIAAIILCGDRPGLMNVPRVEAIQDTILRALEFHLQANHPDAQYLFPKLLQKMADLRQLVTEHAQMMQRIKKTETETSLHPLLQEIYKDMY
Text: as §1, §2, §3, §4, §5, §6, §7, §8, §9, §10
2. […]
as §11, §12, §13

PPAR Gamma = target: T3, PPAR Gamma (Homo sapiens, UniProt P37231); assay: PathHunter NHR protein interaction test, agonist mode, PPAR Gamma; type: cell-based; conditions: agonist mode
T3 sequence (P37231 1-505): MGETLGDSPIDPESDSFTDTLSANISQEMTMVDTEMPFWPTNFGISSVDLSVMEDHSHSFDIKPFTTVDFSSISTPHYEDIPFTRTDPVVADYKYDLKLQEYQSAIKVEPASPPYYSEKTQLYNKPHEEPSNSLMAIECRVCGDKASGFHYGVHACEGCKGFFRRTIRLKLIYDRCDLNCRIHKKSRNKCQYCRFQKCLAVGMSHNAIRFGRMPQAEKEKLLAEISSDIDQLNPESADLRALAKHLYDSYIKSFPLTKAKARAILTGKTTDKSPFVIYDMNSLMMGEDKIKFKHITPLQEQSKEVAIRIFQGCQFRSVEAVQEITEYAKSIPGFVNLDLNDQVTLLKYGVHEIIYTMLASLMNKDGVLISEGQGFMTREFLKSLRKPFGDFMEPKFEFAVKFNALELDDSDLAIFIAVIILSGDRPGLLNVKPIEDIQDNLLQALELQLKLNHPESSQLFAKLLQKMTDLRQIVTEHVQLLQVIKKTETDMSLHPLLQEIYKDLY
Text: as §1, §2, §3, §4, §5
The NHR NT test detected the transfer of an NHR between the cytoplasmic and nuclear compartments. […]
as §11, §12, §13

[1] = Solid stability test under high temperature and high humidity (40° C./75% humidity), HPLC; type: physicochemical
Method: Samples (each about 100 mg) of the amorphous form of the compound of formula (I) were weighed in duplicates, and placed on the bottom of a glass sample bottle to spread out into a thin layer. The mouth of the glass sample bottle was sealed with aluminum foil which was pierced to form some holes thereon to ensure that the samples could sufficiently contact with the ambient air. The samples were placed in a constant temperature and humidity chamber at 40° C./75% humidity. The samples stored under the above conditions were sampled and tested on Days 10, 30, 60, and 90. The test results were compared with the initial test results of Day 0.

[2] = Stability tests of the amorphous form in various solvents, XRPD; type: physicochemical; conditions: for Appearance: 40° C. 2 days
Method: A plurality of samples of the amorphous form of the compound of formula (I) (each about 20 mg) were respectively added to 0.3-0.4 mL of a single or mixed solvent as listed in the table below, and stirred at 40° C. After being stirred for 2 days, if the sample was still in a state of a solution or close to a solution, it was filtered, followed by natural evaporation of solvent; and if the sample was still a suspension, the sample was centrifuged for collecting the precipitates, and the supernate was placed in a fuming cupboard until the solvent was dried off. Then, the precipitates and the solids obtained after solvent evaporation were placed in a vacuum drying oven at 40° C. overnight. The solids in all the samples were collected and detected by XRPD for their states.

[3] = tested on: cytokines of PPAR-associated pathways; assay: Effect on cytokines of PPAR-associated pathways; conditions: no data shown
[4] = Solid physical stability test at high humidity (25° C./92.5% RH), appearance and XRPD; type: physicochemical
Method: Samples (each about 100 mg) of the amorphous form of the compound of formula (I) were weighed in duplicates, and placed on the bottom of a glass sample bottle to spread out into a thin layer. The mouth of the glass sample bottle was sealed with aluminum foil which was pierced to form some holes thereon to ensure that the samples could sufficiently contact with the ambient air. The prepared samples were placed under the relative conditions of 25° C./92.5%, and detected for their physical stability on Day 10. Meanwhile, a sample (about 100 mg) of the amorphous form of the compound of formula (I) was separately weighed, placed on the bottom of the glass sample bottle which was sealed with a screw cap, and stored at −20° C. as control. On Day 10, all the samples were taken out and returned to room temperature. The samples were visually observed for their appearance changes, and detected by XRPD for their forms. By comparing the accelerated sample with the control sample, the solid physical stability of the compound of formula (I) was determined.

[5] = 40° C./75% humidity, open, Day 10, HPLC
[6] = 40° C./75% humidity, open, Day 30, HPLC
[7] = 40° C./75% humidity, open, Day 60, HPLC
[8] = 40° C./75% humidity, open, Day 90, HPLC

- PPAR Alpha Maximum stimulus-response value (PPAR Alpha; reference agonist, set as 100%): 100%
Structure (SMILES): CC(C)(Sc1ccc(CCN(CCCCC2CCCCC2)C(=O)NC2CCCCC2)cc1)C(=O)O [GW7647, reference compound]

Structure (SMILES): CCCc1c(OCCCOc2ccc(OCC(=O)O)cc2)ccc(C(C)=O)c1O [L-165,041, reference compound]
- EC50 (PPAR Delta; agonist mode): < 100 nM
- PPAR Delta Maximum stimulus-response value (PPAR Delta; reference agonist, set as 100%): 100%

- EC50 (PPAR Alpha; agonist mode): > 250 nM
- EC50 (PPAR Gamma): > 250 nM
Structure (SMILES): CSc1ccc(C(=O)/C=C/c2cc(C)c(OC(C)(C)C(=O)O)c(C)c2)cc1 [GFT-505, Elafibranor, reference compound]

- Appearance ([1]; 40° C./75% humidity, open, Day 10): Off-white powder
- Purity (%) [1, 5]: 97.49%
- Total Impurity (%) [1, 5]: 2.51%
- Appearance ([1]; 40° C./75% humidity, open, Day 30): Off-white powder
- Purity (%) [1, 6]: 97.31%
- Total Impurity (%) [1, 6]: 2.69%
- Appearance ([1]; 40° C./75% humidity, open, Day 60): Off-white powder
- Purity (%) [1, 7]: 97.59%
- Total Impurity (%) [1, 7]: 2.41%
- Appearance ([1]; 40° C./75% humidity, open, Day 90): Off-white powder
- Purity (%) [1, 8]: 97.28%
- Total Impurity (%) [1, 8]: 2.72%
- Appearance ([1]; Day 0 (initial)): Off-white powder
- Purity (%) ([1]; Day 0 (initial), HPLC): 97.37%
- Total Impurity (%) ([1]; Day 0 (initial), HPLC): 2.63%
- Appearance ([2]; 1,4-dioxane, about 20 mg in 0.3-0.4 mL, cell wraps: ...Solid precipitated after evaporation of solvent): Suspension (2 days)/Solid
- Appearance ([2]; Acetone, about 20 mg in 0.3-0.4 mL, cell wraps: ...Solid precipitated after evaporation of solvent): Suspension (2 days)/Solid
- Appearance ([2]; Acetone:water = 3:1, about 20 mg in 0.3-0.4 mL, cell wraps: ...Solid precipitated after evaporation of solvent): Suspension (2 days)/Solid
- Appearance ([2]; Acetonitrile, about 20 mg in 0.3-0.4 mL, cell wraps: ...Solid precipitated after evaporation of solvent): Suspension (2 days)/Solid
- Appearance ([2]; Acetonitrile:water = 3:1, about 20 mg in 0.3-0.4 mL, cell wraps: ...Solid precipitated after evaporation of solvent): Suspension (2 days)/Solid
- Appearance ([2]; Ethanol, about 20 mg in 0.3-0.4 mL, cell wraps: ...Solid precipitated after evaporation of solvent): Suspension (2 days)/Solid
- Appearance ([2]; Ethanol:water = 3:1, about 20 mg in 0.3-0.4 mL, cell wraps: ...Solid precipitated after evaporation of solvent): Suspension (2 days)/Solid
- Appearance ([2]; Ethyl acetate, about 20 mg in 0.3-0.4 mL, cell wraps: ...Solid precipitated after evaporation of solvent): Suspension (2 days)/Solid
- Appearance ([2]; Methanol, about 20 mg in 0.3-0.4 mL, cell wraps: ...after evaporation of solvent): Solid precipitated after
- Results (form by XRPD) ([2]; Methanol, stirred at 40° C. 2 days): Amorphous
- Appearance ([2]; Methanol:water = 3:1, about 20 mg in 0.3-0.4 mL, cell wraps: ...after evaporation of solvent): Solid precipitated after
- Results (form by XRPD) ([2]; Methanol:water = 3:1, stirred at 40° C. 2 days): Amorphous
- Appearance ([2]; Tetrafuran, about 20 mg in 0.3-0.4 mL, cell wraps: ...Solid precipitated after evaporation of solvent): Suspension (2 days)/Solid
- stability of form in various solvents ([2]; summary of Table 4): does not exhibit any change of form
- Appearance ([4]; 25° C./92.5% Relative Humidity (Open), Day 10): Off-white powder
- Form ([4]; 25° C./92.5% Relative Humidity (Open), Day 10, XRPD): Amorphous
Structure (SMILES): CSc1ccc(C(=O)[C@@H]2CN(C(=O)Oc3ccccc3)C[C@H]2Cc2cc(C)c(OC(C)(C)C(=O)O)c(C)c2)cc1
- stability at high temperature and humidity ([1]; 40° C./75% humidity, up to Day 90): does not exhibit a significant change in content and impurities
- effect on cytokines of PPAR-associated pathways [3]: obvious inhibitory effect
- stability at high humidity ([4]; 25° C./92.5% RH, Day 10): does not exhibit form and appearance changes
